The target in assay [1] is T1, Transthyretin (TTR, prealbumin), wild type (Homo sapiens, UniProt P02766).
T1 construct: homotetramer; prealbumin from human plasma
Description: acid-induced (pH […] h) aggregation turbidity; urea denaturation by Trp fluorescence. The format is biochemical.

The target of assay [2] is Transthyretin (TTR) V30M (Homo sapiens, UniProt P02766, V50M). The description is as above. The assay is classed as biochemical.

What is called EC50 is the concentration needed to bring the measured effect to its halfway point. Read a high EC50 as weaker potency. With `C/C(=C/CC[C@@]1(C)C2C[C@@H]3[C@H](C2)C31C)CO` [α-santalol], the figures for the EC50 in assay [1] and in assay [2] were 36.7 ± 1.2 µM and 44.3 ± 3.5 µM, respectively.

`C=C1[C@@H]2CC[C@@H](C2)[C@@]1(C)CC/C=C(/C)CO` [β-santalol]: the EC50 is 31.1 ± 2.4 µM in assay [1] and 34.5 ± 2.8 µM in assay [2].

The values above are taken from article PMC9243336, “Santalol Isomers Inhibit Transthyretin Amyloidogenesis and Associated Pathologies in Caenorhabditis elegans” (Frontiers in Pharmacology, 2022).
